Reference: patent US20260152485A1, “ISOINDOLINONE DERIVATIVE HAVING QUINOLINE AMIDE STRUCTURE, AND USE THEREOF” (ONCORD BIO INC, priority 2022, published 2026)

What was measured:
[1] = test system: NCI-H1155 (lung cancer cells); experiment: CytoX cell viability assay, NCI-H1155 cells; type: cell-based; conditions: 72 hours; for viability at 0.01 µM / viability at 0.5 µM: Homo sapiens
Protocol: The viability of NCI-H1155 (lung cancer cells) was measured using the CytoX cell viability assay kit (LPS Solution, #CYT3000). NCI-H1155 cells were seeded in a 12-well plate, and each compound of the present disclosure and a comparative compound (CC-90009) were treated at 10 nM and 500 nM concentrations for 72 hours. CytoX solution was then added to the cells and incubated for 1 hour.

[2] = test system: KG-1 cancer cells; experiment: Cytotoxicity assay (WST-1), KG-1 cells; type: cell-based; conditions: Homo sapiens, 72 hours
Protocol: Cancer cells (KG-1) were seeded at a density of 10,000 cells per well in 96-well plates. The compound of the present disclosure and control compounds (Comparative Compounds 1, 2, and 3) were treated at predetermined concentrations. After 72 hours, the cells were treated with WST-1 reagent for 1 hour. Then, absorbance was read at 450 nm using a SpectraMax spectrophotometer to determine cell viability.

| SMILES | viability at 0.01 µM ([1]; 10 nM) | viability at 0.5 µM ([1]; 500 nM) | IC50 [2] | also measured |
| --- | --- | --- | --- | --- |
| Cc1cccc2c(C(=O)NCc3ccc4c(c3)CN(C3CCC(=O)NC3=O)C4=O)cc(-c3cccnc3)nc12 (stereo not shown) [Cpd. 10, N-((2-(2,6-dioxopiperidin-3-yl)-1-oxoisoindolin-5-yl)methyl)-8-methyl-2-(pyridin-3-yl)quinoline-4-carboxamide] | 3% | 4% | – | – |
| O=C1CCC(N2Cc3cc(CNC(=O)c4cnc5ccccc5n4)ccc3C2=O)C(=O)N1 (stereo not shown) [compound 2, N-((2-(2,6-dioxopiperidin-3-yl)-1-oxoisoindolin-5-yl)methyl)quinolxaline-2-carboxamide, reference compound] | – | – | > 10000 nM | – |
| O=C1CCC(N2Cc3cc(CNC(=O)c4ccc5cc(Cl)ccc5n4)ccc3C2=O)C(=O)N1 (stereo not shown) [compound 3, 6-chloro-N-((2-(2,6-dioxopiperidin-3-yl)-1-oxoisoindolin-5-yl)methyl)quinoline-2-carboxamide, reference compound] | – | – | 4100 nM | – |
| O=C1CCC(N2Cc3cc(CNC(=O)c4ccnc5ccccc45)ccc3C2=O)C(=O)N1 (stereo not shown) [Cpd. 9, N-((2-(2,6-dioxopiperidin-3-yl)-1-oxoisoindolin-5-yl)methyl)quinoline-4-carboxamide] | 88% | 25% | – | – |
| O=C1CCC(N2Cc3cc(CNC(=O)C(F)(F)c4ccc(Cl)cc4)ccc3C2=O)C(=O)N1 (stereo not shown) [CC-90009, reference compound] | – | – | – | NCI-H1155 (% viability) at 10 nM ([1]; 10 nM): 85.0%; NCI-H1155 (% viability) at 500 nM ([1]; 500 nM): 23.25% |
| Cc1cccc2c(C(=O)NCc3ccc4c(c3)CN(C3CCC(=O)NC3=O)C4=O)cc(-c3ccccc3)nc12 (stereo not shown) [Cpd. 4, N-((2-(2,6-dioxopiperidin-3-yl)-1-oxoisoindolin-5-yl)methyl)-8-methyl-2-phenylquinoline-4-carboxamide] | – | – | 1 nM | – |
| O=C1CCC(N2Cc3cc(CNC(=O)c4cc(-c5ccc(F)cc5)nc5ccccc45)ccc3C2=O)C(=O)N1 (stereo not shown) [Cpd. 14, N-((2-(2,6-dioxopiperidin-3-yl)-1-oxoisoindolin-5-yl)methyl)-2-(4-fluorophenyl)quinoline-4-carboxamide] | 33% | 23% | – | – |
| O=C1CCC(N2Cc3cc(CNC(=O)c4cc(Cl)nc5ccccc45)ccc3C2=O)C(=O)N1 (stereo not shown) [Cpd. 8, 2-chloro-N-((2-(2,6-dioxopiperidin-3-yl)-1-oxoisoindolin-5-yl)methyl)quinoline-4-carboxamide] | 86% | 23% | – | – |
| CC(C)c1ccc(-c2cc(C(=O)NCc3ccc4c(c3)CN(C3CCC(=O)NC3=O)C4=O)c3ccccc3n2)cc1 (stereo not shown) [Cpd. 2, N-((2-(2,6-dioxopiperidin-3-yl)-1-oxoisoindolin-5-yl)methyl)-2-(4-isopropylphenyl)quinoline-4-carboxamide] | – | – | 1.5 nM | – |
| O=C1CCC(N2Cc3cc(CNC(=O)c4cc(-c5ccncc5)nc5ccccc45)ccc3C2=O)C(=O)N1 (stereo not shown) [Cpd. 7, N-((2-(2,6-dioxopiperidin-3-yl)-1-oxoisoindolin-5-yl)methyl)-2-(pyridin-4-yl)quinoline-4-carboxamide] | 50% | 5% | – | – |
| O=C1CCC(N2Cc3cc(CNC(=O)c4cc(-c5ccccc5F)nc5ccccc45)ccc3C2=O)C(=O)N1 (stereo not shown) [Cpd. 15, N-((2-(2,6-dioxopiperidin-3-yl)-1-oxoisoindolin-5-yl)methyl)-2-(2-fluorophenyl)quinoline-4-carboxamide] | 31% | 26% | – | – |
| Cc1c(-c2ccccc2)nc2ccccc2c1C(=O)NCc1ccc2c(c1)CN(C1CCC(=O)NC1=O)C2=O (stereo not shown) [Cpd. 12, N-((2-(2,6-dioxopiperidin-3-yl)-1-oxoisoindolin-5-yl)methyl)-3-methyl-2-phenylquinoline-4-carboxamide] | 59% | 24% | – | – |
| O=C1CCC(N2Cc3cc(CNC(=O)c4cc5ccccc5cn4)ccc3C2=O)C(=O)N1 (stereo not shown) [compound 1, N-((2-(2,6-dioxopiperidin-3-yl)-1-oxoisoindolin-5-yl)methyl)isoquinoline-3-carboxamide, reference compound] | – | – | > 10000 nM | – |
| Cc1ccc2nc(-c3ccccc3)cc(C(=O)NCc3ccc4c(c3)CN(C3CCC(=O)NC3=O)C4=O)c2c1 (stereo not shown) [Cpd. 3, N-((2-(2,6-dioxopiperidin-3-yl)-1-oxoisoindolin-5-yl)methyl)-6-methyl-2-phenylquinoline-4-carboxamide] | – | – | 14 nM | – |
| O=C1CCC(N2Cc3cc(CNC(=O)c4cc(-c5ccccc5)nc5ccccc45)ccc3C2=O)C(=O)N1 (stereo not shown) [Cpd. 1, N-((2-(2,6-dioxopiperidin-3-yl)-1-oxoisoindolin-5-yl)methyl)-2-phenylquinoline-4-carboxamide] | – | – | 0.8 nM | – |
| Cc1ccccc1-c1cc(C(=O)NCc2ccc3c(c2)CN(C2CCC(=O)NC2=O)C3=O)c2ccccc2n1 (stereo not shown) [Cpd. 13, N-((2-(2,6-dioxopiperidin-3-yl)-1-oxoisoindolin-5-yl)methyl)-2-(o-tolyl)quinoline-4-carboxamide] | 32% | 26% | – | – |
